Data from ChEMBL document CHEMBL1156830, “Synthesis of fluorescent nucleoside analogs as probes for 2'-deoxyribonucleoside kinases” (Bioorg Med Chem Lett, 2010).

Tests used:
[1] = target: T1, Deoxynucleoside kinase (Drosophila melanogaster) (UniProt Q9XZT6); test: Activity at Drosophila melanogaster dNK at 100 uM by spectrophotometry
T1 sequence (whole entry): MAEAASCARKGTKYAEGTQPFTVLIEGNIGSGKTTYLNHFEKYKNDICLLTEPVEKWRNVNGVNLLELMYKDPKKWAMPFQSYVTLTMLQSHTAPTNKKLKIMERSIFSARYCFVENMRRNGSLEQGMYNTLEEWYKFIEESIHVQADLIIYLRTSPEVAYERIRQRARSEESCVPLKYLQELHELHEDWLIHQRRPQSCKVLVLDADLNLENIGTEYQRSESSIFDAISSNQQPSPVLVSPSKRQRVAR

[2] = target: T1, Deoxynucleoside kinase (Drosophila melanogaster); test: Activity at Drosophila melanogaster dNK at 10 uM by spectrophotometry

Structure (SMILES)	Activity [1] [%]	Activity [2] [%]
Cc1cc2cn([C@H]3C=C[C@@H](CO)O3)c(=O)nc2o1	330	–
Cc1cc2cn([C@H]3C[C@H](O)[C@@H](CO)O3)c(=O)nc2o1	–	43
Cc1cc2cn([C@H]3C[C@H](N=[N+]=[N-])[C@@H](CO)O3)c(=O)nc2o1	12	–
Cc1cc2cn([C@H]3C[C@H](F)[C@@H](CO)O3)c(=O)nc2o1	12	–

The next lines start with the values.

Activity [1] [%]	Activity [2] [%]	Structure (SMILES)
128	–	Cc1cc2cn([C@H]3C[C@H](O)[C@@H](CO)O3)c(=O)nc2[nH]1
2.6	–	Cc1cc2cn([C@H]3CC[C@@H](CO)O3)c(=O)nc2[nH]1
30	–	Cc1cc2cn([C@H]3CC[C@@H](CO)O3)c(=O)nc2o1
